These results are taken from US6235736A, “3-anilino-2-cycloalkenone derivatives” (Nikken Chemicals Co., Ltd., priority 1997, dated 2001).

By ED50 is commonly meant the midpoint of the dose-response relation. One may read the IC50 as the concentration at which inhibition is half-maximal.

The test system of test [1] is antigen-induced bronchoconstriction in guinea-pig. Nature of the test: Inhibitory effect on antigen-induced bronchospasm (anti-asthmatic action). Conditions: Cavia porcellus; intravenous, 10 minutes before 0.2 mg/kg OA challenge; read-out: Action suppressing antigen induced bronchoconstriction ED50. The test is classed as in vivo, guinea-pig (Hartley male). On the procedure:
Hartley male guinea-pig was sensitized by intramuscular administration of 35 mg Ovalbumin (OA) at first day and fourth day. After 25 to 29 days of first sensitization, trachial canula was introduced in the guinea pig anesthetized with pentobarbital and artificial ventilation was performed. The overflow of the ventilation was measured by the Konzett Roessler method while 0.2 mg/kg OA were administered intravenously. The test compound was dissolved in polyethylene glycol 400 and intravenously administered 10 minutes before OA challenge.

The next test deals with Type IV PDE. Nature of the test: PDE IV inhibitory activity (isozyme partially purified from rat neutrophils, 3H-cAMP substrate). The test is classed as biochemical. As to conditions: rat neutrophil PDE IV, 30° C., 30 minutes, read-out: PDE IV inhibiting action IC50. On the procedure: Type I, III, IV, and V PDE isozymes were prepared to study the PDE inhibitory activities of and selectivities with the compound of the invention [Trends Pharmacol Sci., 12, 19-27 (1991)]. Type I PDE was purchased from Sigma Corp. Type III, IV, and V PDE isozymes were partially purified from platelets (Type III and V) or neutrophils (Type IV) collected from rats. Each enzyme source was homogenized in a buffer (pH 6.5) containing 20 mM bisTris, 2 mM EDTA (i.e., ethlenediamine tetraacetate), 2-mercaptoethanol, 0.001 mM pepstatin and 0.01 mM leupeptin and was centrifuged at 30000×G for 30 minutes to obtain a supernatant, which was applied to an ion exchange column (Q-sepharose first flow, Pharmacia Corp.) and was eluted with 0 to 1M sodium acetate. Partially purified isozymes were identified by observing the inhibitory effects of conventional inhibitors.
Each PDE isozyme and the test compound dissolved in DMSO (i.e., dimethylsulfoxide) were added to 50 mM Tris--HCI buffer containing 5 mM magnesium chloride. ^3 H-cAMP (for type III and IV PDE) or ^3 H-cGMP (for type I and V PDE) were added as substrates and were reacted at 30° C. for 30 minutes. The reaction was terminated by placing the test tube in boiling water of 100° C. for 5 minutes. The nucleotides formed by PDE were broken down to ^3 H-adenosine or ^3 H-guanosine by 5'-nucleotidase. The substrate and reaction product were separated through an ion-exchange column (i.e., QAE sephadex, Pharmacia Corp.)
The eluted ^3 -H-nucleoside was measured for its radioactivity by a liquid scintillation counter. The inhibitory activities of the compound of the present invention are shown by the IC50 value (M). Further, the inhibitory activities of the test samples against type I, III, and V PDE are 1/10 or less than that against Type IV PDE.

For the next test, the system named is rat neutrophils. Description: Inhibition of superoxide anion release from rat neutrophils (chemiluminescence). The test is classed as cell-based. Conditions: Neutrophil, stimulated with 0.3 micro M A23187, read-out: Action suppressing release of superoxide anions from rat neutrophils IC50. Here is the method:
The release of super oxide anions was measured so as to study the inhibitory effects of the compound of the present invention on inflammatory leukocytes, that is, neutrophils.
Blood sample was collected from Wister rats anestetized with ether. It was superposed on a blood cell separation solution (Polymorphoprep 1.113, Naicomed Farm) and the neutrophils were separated by centrifugation. The neutrophils were resuspended in a Hank's balanced salt solution at a concentration of 0.5×10^4 cells/ml. 0.1 mM of lusigenin and the test substance dissolved in DMSO were added to 2 ml of the cell suspension. The chemiluminescence generated by stimulation of 0.3 maicro M calcium ionophore A23187 was measured by a chemiluminescence reader so as to evaluate the release of super oxide anions.

Test [2] concerns TPA induced ear edema in mouse. Nature of the test: TPA induced mouse ear edema assay. In kind it is in vivo, mouse (male ICR). Conditions: 0.1 mg applied to right ear immediately after TPA; 6 hour. Here is the method: Male ICR mice, 5 week old, were divided into groups of seven to eight. 2 μg of TPA (phorbor 12-ministate; Sigma Co.) in 20 μl acetone was applied to the inner and outer surface of right ear of each mouse to cause a reaction. 0.1 mg of compound was dissolved in 20 μl of a tetrahydrofuran-methanol mixture (mixture ratio 1:1) and the solution (20 μl) applied to the right ear immediately after TPA treatment. After 6 hour, the animals were sacrificed and right ear was punched out (.phi. […]) and weighed. The effect of comppund.was calculated as % inhibition as follows: [formula]

Consider `COc1ccc(NC2=C(C)C(=O)CC2)cc1OC1Cc2ccccc2C1` [Compound No. 10, 3-[3-(2-indanyloxy)-4-methoxyanilino]-2-methyl-2-cyclopenten-1-one], for which the ED50 in test [1] turned out to be 0.86 mg/kg. The IC50 in the test on Type IV PDE came out at 140 nM.
Consider `COc1ccc(NC2=CC(=O)NCC2)cc1OC1CCCC1` [Compound No. 21, 4-(3-cyclopentyloxy-4-methoxyanilino)-1,2,5,6-tetrahydropyridin-2-one], for which the ED50 in test [1] was found to be 1 mg/kg. Further, the half-maximal inhibitory concentration (IC50) in the test on rat neutrophils is 410 nM; with Type IV PDE it was 1100 nM.
With `COc1ccc(NC2=CC(=O)CC2)cc1O[C@@H]1C[C@H]2CC[C@@H]1C2` (racemic) [Compound No. 8, 3-[3-[(1RS,2RS,4SR)-bicyclo[2.2. 1]hept-2-yloxy]-4-methoxyanilino]-2-cyclopenten-1-one], the “% Inhibition of ear edema” value in test [2] came out at 73.1%. Also, the ED50 in test [1] was 3 mg/kg. Further, the IC50 in the test on rat neutrophils came to 140 nM; with Type IV PDE it was 1300 nM.
Take `COc1ccc(NC2=CC(=O)CC2)cc1OC1CCCC1` [Compound No. 1, 3-(3-cyclopentyloxy-4-methoxyanilino)-2-cyclopenten-1-one]: the “% Inhibition of ear edema” value in test [2] turned out to be 68.2%. Moreover, the ED50 in test [1] stood at 1.4 mg/kg. Further, the IC50 in the test with rat neutrophils came out at 120 nM; in the test with Type IV PDE, 1600 nM.
For the compound `CCC1=C(Nc2ccc(OC)c(OC3Cc4ccccc4C3)c2)CCC1=O` [Compound No. 32, 2-ethyl-3-[3-(2-indanyloxy)-4-methoxyanilino]-2-cyclopenten-1-one], the “% Inhibition of ear edema” value in test [2] is 75.5%. The ED50 in test [1] is 7.34 mg/kg. In addition, the IC50 in the test with Type IV PDE was determined as 50 nM.
Turning to `COc1ccc(N(Cc2ccc3ccccc3n2)C2=CC(=O)CC2)cc1O[C@@H]1C[C@H]2CC[C@@H]1C2` (relative stereo) [Compound No. 82, 3-[3-[(1RS,2RS,4SR)-bicyclo[2.2. 1]hept-2-yloxy]4-methoxy-N-(2-quinolinemethyl)anilino]-2-cyclopenten-1-one], the “% Inhibition of ear edema” value in test [2] came out at 84.4%. Also, the IC50 with Type IV PDE is 530 nM.
In the same order, the values of `COc1ccc(NC2=C(C)C(=O)CC2)cc1OC1CCOC1` (stereo not shown) [Compound No. 37, 3-[4-methoxy-3-(3-2,3,4,5-tetrahydrofuranyloxy)anilino]-2-methyl-2-cyclopenten-1-one] are 51.8% and 1200 nM.
Turning to `COc1ccc(N(Cc2ccc3ccccc3n2)C2=CC(=O)CC2)cc1OC1CCCC1` [Compound No. 58, 3-[3-cyclopentyloxy-4-methoxy-N-(2-quinolylemethyl)anilino]-2-cyclopenten-1-one], in test [2], the “% Inhibition of ear edema” value worked out at 58.7%. In addition, the concentration for half-maximal inhibition (IC50) with Type IV PDE is 530 nM.
Turning to `CCC1=C(Nc2ccc(OC)c(OC3CCCC3)c2)CCC1=O` [Compound No. 31, 3-(3-cyclopentyloxy-4-methoxyanilino)-2-ethyl-2-cyclopenten-1-one], in test [2], the “% Inhibition of ear edema” value was 73.4%. Besides, the IC50 with Type IV PDE came out at 220 nM.
For the compound `COc1ccc(NC2=C(C)C(=O)CCC2)cc1OC1CCCC1` [Compound No. 75, 3-(3-cyclopentyloxy-4-methoxyanilino)-2-methyl-2-cyclohexen-1-one], the “% Inhibition of ear edema” value in test [2] came to 64.8%. Further, the IC50 in the test on Type IV PDE was 470 nM.
Take `COc1ccc(N(Cc2ccc3ccccc3n2)C2=CC(=O)CC2)cc1OC1Cc2ccccc2C1` [Compound No. 80, 3-[3-(2-indanyloxy)-4-methoxy-N-(2-quinolylmethyl)anilino]-2-cyclopenten-1-one]: the “% Inhibition of ear edema” value in test [2] is 64.4%. Also, the IC50 with Type IV PDE was determined as 120 nM.
For the compound `CCCCOc1cc(NC2=CC(=O)CC2)ccc1OC` [Compound No. 17, 3-(3-butoxy-4-methoxyanilino)-2-cyclopenten-1-one], the “% Inhibition of ear edema” value in test [2] is recorded as 57.1%. Further, in the test with Type IV PDE, the IC50 amounted to 14000 nM.
The matching figures for `COc1ccc(NC2=CC(=O)CCC2)cc1OC1CCCC1` [Compound No. 2, 3-(3-cyclopentyloxy-4-methoxyanilino)-2-cyclohexen-1-one]: 65.0% and 3700 nM.
For `COc1ccc(N(Cc2ccc3ccccc3c2)C2=CC(=O)CC2)cc1OC1CCCCC1` [Compound No. 57, 3-[3-cyclohexyloxy-4-methoxy-N-(2-naphthylmethyl)anilino]-2-cyclopenten-1-one], the “% Inhibition of ear edema” value in test [2] worked out at 89.7%. Further, the IC50 with Type IV PDE is 1900 nM.
In the case of `COc1ccc(N(Cc2ccncc2)C2=C(C)C(=O)CC2)cc1OC1Cc2ccccc2C1` [Compound No. 73, 3-[3-(2-indanyloxy)-4-methoxy-N-(4-pyridylmethyl)anilino]-2-methyl-2-cyclopenten-1-one], in test [2], the “% Inhibition of ear edema” value was 54.3%. For the same compound, the IC50 in the test on Type IV PDE stood at 3200 nM.
The matching figures for `COc1ccc(N(Cc2ccncc2)C2=CC(=O)CC2)cc1OC1CCCC1` [Compound No. 28, 3-[3-cyclopentyloxy-4-methoxy-N-(4-pyridylmethyl)anilino]-2-cyclopenten-1-one]: 71.5% and 4300 nM.
In the case of `COc1ccc(N(Cc2ccccn2)C2=CC(=O)CC2)cc1OC1CCCC1` [Compound No. 61, 3-[3-cyclopentyloxy-4-methoxy-N-(2-pyridylmethyl)anilino]-2-cyclopenten-1-one], in test [2], the “% Inhibition of ear edema” value was found to be 66.2%. In the test on Type IV PDE, the IC50 was found to be 3200 nM.
For `CCCN(C1=CC(=O)CC1)c1ccc(OC)c(OC2CCCC2)c1` [Compound No. 59, 3-(3-cyclopentyloxy-4-methoxy-N-propylanilino)-2-cyclopenten-1-one], the “% Inhibition of ear edema” value in test [2] stood at 60.1%. Moreover, the IC50 with Type IV PDE was 7400 nM.
On to `COc1ccc(NC2=C(Br)C(=O)CC2)cc1OC1CCCC1` [Compound No. 7, 2-bromo-3-(3-cyclopentyloxy-4-methoxyanilino)-2-cyclopenten-1-one], for which, in test [2], the “% Inhibition of ear edema” value was 55.8%. Moreover, the IC50 with Type IV PDE came out at 280 nM.
For `COc1ccc(N(Cc2ccccc2)C2=CC(=O)CC2)cc1OC1CCCCC1` [Compound No. 56, 3-(N-benzyl-3-cyclohexyloxy-4-methoxyanilino)-2-cyclopenten-1-one], the “% Inhibition of ear edema” value in test [2] is given as 86.1%. For the same compound, the IC50 with Type IV PDE turned out to be 5500 nM.
In the same order, the values of `COc1ccc(N(Cc2ccccn2)C2=CC(=O)CCC2)cc1OC1Cc2ccccc2C1` [Compound No. 68, 3-[3-(2-indanyloxy)-4-methoxy-N-(2-pyridylmethyl)anilino]-2-cyclohexen-1-one] are 52.0% and 490 nM.
`COc1ccc(NC2=CC(=O)NCC2)cc1O[C@H]1C[C@@H]2CC[C@H]1C2` (relative stereo) [Compound No. 23]: the “% Inhibition of ear edema” value in test [2] came to 73.0%. The IC50 in the test on rat neutrophils amounted to 190 nM; in the test on Type IV PDE, 2400 nM.
Regarding `COc1ccc(NC2=C(Cc3ccccc3)C(=O)CC2)cc1OC1CCCC1` [Compound No. 33, 2-benzyl-3-(3-cyclopentyloxy-4-methoxyanilino)-2-cyclopenten-1-one], in test [2], the “% Inhibition of ear edema” value came out at 81.7%. Also, in the test with Type IV PDE, the IC50 was found to be 400 nM.
The matching figures for `COc1ccc(NC2=C(C)C(=O)CC2)cc1O[C@@H]1C[C@H]2CC[C@@H]1C2` (racemic) [Compound No. 44, 3-[3-[(1RS,2RS,4SR)-bicyclo[2.2. 1]hept-2-yloxy]-4-methoxyanilino]-2-methyl-2-cyclopenten-1-one]: 74.1% and 220 nM.
